Test results from patent publication US11958842B2, “Substituted phenazines and methods of treating cancer and bacterial diseases” (Adjutec Pharma AS, priority 2016, dated 2024).
Where two headings read alike, the source gives them in different places.

Legend:
Format in all cases: cell-based
[1] = tested on: human acute myeloid leukemia cell line MOLM-13; assay: Cytotoxicity, WST-1 and nuclear morphology (Example 73)
Description: (§1) All cell culturing media and serum were from Sigma-Aldrich (St. Louis, Mo., USA). Product Nos. are given in parentheses. The human acute myeloid leukemia cell line MOLM-13 was cultured in RPMI medium (R5886) enriched with […] (F7524) and 0.2 mM L-glutamine (G7513). The normal rat kidney epithelial (NRK) and the rat cardiomyoblast (H9c2) cells were cultured in DMEM medium (D6429) enriched with 10% fetal bovine serum (F7524). All cell lines were additionally supplemented with 100 IU/mL penicillin and […] (P0781). The cells were cultured in a humidified atmosphere either under 2% or 20% O2 at 37° C.
(§2) All analogues were dissolved in DMSO (D5879, Sigma-Aldrich) at concentrations between 2.5 and 20 mM before testing. For cytotoxic testing, the MOLM-13 cells were seeded as 20,000 cells/well, while NRK and H9c2 cells were seeded as 5,000 cells/well in 96-well Microplates (#167008, Thermo Scientific™ Nunc™ MicroWell™) with 100 μL medium/well. The cells were exposed to various concentrations of iodinin or its analogues for 24 hrs before the cell proliferation reagent WST-1 was used to assess the viability, in accordance with the manufacturer's instructions (11644807001, Roche Diagnostics, Sigma-Aldrich). The cells were next fixed in 2% buffered formaldehyde (pH 7.4) with the DNA-specific dye Hoechst 33342 (Polysciences Inc.) and assessed for cell death by UV-microscopy based on nuclear morphology. The highest concentration of analogue corresponded to 1% of DMSO, which alone gave less than 7% cell death as judged by nuclear morphology.
(§3) EC50 values were determined by analyses of WST-1 signal results as well as microscopic evaluation of cell death by four-parameter regression analyses using the SigmaPlot software (Systat Software inc. San Jose, Calif.):
(§4) [formula] where Y is the response (WST-1 signal or percent apoptosis), min and max are minimum and maximum response, X is concentration of analogue, EC50 equals the point of inflection, i.e. the point that gives half of maximum response, and h is the Hill's slope of the curve. The two methods gave consistent response curves for each analogue. In the case of Tirapazamine, where its colour interfered with the WST-1 signal, only microscopic evaluation of Hoechst stained cells was used in order to calculate its EC50 values.

[2] = tested on: Molm13 cells; assay: Anti-AML activity, WST-1 viability (Example 72); conditions: Homo sapiens
Description: Dry powder of analogs were dissolved in DMSO. IPC-18 rat AML cells (Lacaze, N. et al. Leuk. Res. 1983, 7, 145.) were cultured in DMEM medium (Sigma-Aldrich, St. Louis, Mo., USA) supplemented with 10% horse serum (Invitrogen, Carlsbad, Calif., USA), and antibiotics (50 U/mL of penicillin and 0.05 mg/mL streptomycin). Molm13 (Matsuo, Y. et al. Leukemia 1997, 11, 1469.) cells were cultured in RPMI supplemented with antibiotics (50 U/mL of penicillin and 0.05 mg/mL streptomycin) and 10% fetal bovine serum (FBS, Invitrogen, Carlsbad, Calif.) and kept in exponential growth before the experiments. Dilution series of iodinin analogs were added to medium and cell suspension added to reach a final cell concentration of 150 000 cells/ml in 0.1 mL in a 96 well tissue culture plate. […] The cells were incubated with the iodinin analogs for 22 h before WST-1 was added according to the manufacturers protocol, and the cells incubated further in 2 h. Mitochondrial conversion of WST-1 to its colored metabolite was measured by a plate reader at 450 nm, with 620 nm as the reference wavelength. The cells were next fixed by adding 4% buffered formaldehyde (PBS, pH 7.4, supplemented with 0.01 mg/mL Hoechst 33342 for nuclear visualization) to the cell suspension at 1:1 (v/v) ratio (final concentration of formaldehyde:[…]). The cells' nuclear and surface morphology were examined microscopically and results compared with the WST-1 viability assay. The results given in Table I are based on WST-1 data.

[3] = tested on: normal rat kidney epithelial (NRK) cells; assay: Cytotoxicity, WST-1 and nuclear morphology (Example 73)
Description: as §1, §2, §3, §4

[4] = tested on: rat cardiomyoblast (H9c2) cells; assay: as above; conditions: read-out: EC50 (μM) H9c2 19% O2
Description: as §1, §2, §3, §4

[5] = Homo sapiens, MOLM-13, 2% O2, 24 hours of incubation, read-out: EC50 (μM) MOLM-13 2% O2
[6] = Homo sapiens, MOLM-13, 19% O2, 24 hours of incubation, read-out: EC50 (μM) MOLM-13 19% O2
[7] = Molm 13 cells, 2% O2, 24 h of incubation, WST-1, read-out: Molm 13 IC50 2% O2
[8] = Molm 13 cells, 20% O2, 24 h of incubation, WST-1, read-out: Molm 13 IC50 20% O2
[9] = Rattus norvegicus, 2% O2, 24 hours of incubation, read-out: EC50 (μM) NRK 2% O2
[10] = Rattus norvegicus, 19% O2, 24 hours of incubation, read-out: EC50 (μM) NRK 19% O2
[11] = Rattus norvegicus, H9c2, 19% O2, 24 hours of incubation
[12] = Homo sapiens, MOLM-13, 24 h, read-out: EC50 (μM) MOLM-13 2% O2
[13] = Homo sapiens, MOLM-13, 24 h, read-out: EC50 (μM) MOLM-13 19% O2
[14] = Rattus norvegicus, 24 h, read-out: EC50 (μM) NRK 2% O2, NRK, 2% O2, 24 hours of incubation
[15] = Rattus norvegicus, 24 h, read-out: EC50 (μM) NRK 19% O2, NRK, 19% O2, 24 hours of incubation
[16] = MOLM-13, 2% O2, 24 hours of incubation, read-out: EC50 (μM) MOLM-13 2% O2
[17] = MOLM-13, 19% O2, 24 hours of incubation, read-out: EC50 (μM) MOLM-13 19% O2
[18] = H9c2, 19% O2, 24 hours of incubation

SMILES | EC50 [1, 5] | EC50 [1, 6] | EC50 [3, 9] | EC50 [3, 10] | EC50 [4, 11] | also measured
COc1cccc2nc3c(OC)cccc3nc12 [Example 1a, 1,6-dimethoxyphenazine] | 84 ± 6 µM | 72 ± 14 µM | – | – | – | IC50 [2, 7]: > 10 µM; IC50 [2, 8]: > 10 µM
[O-][n+]1c2ccccc2[n+]([O-])c2c(O)cccc21 [Example 4a, 1-hydroxyphenazine 5,10-dioxide] | – | – | – | – | – | IC50 [2, 8]: 4.5 µM
CC(=O)Oc1cccc2c1[n+]([O-])c1cccc(O)c1[n+]2[O-] [Example 5d, 1-Acetoxy-6-hydroxyphenazine 5,10-dioxide] | – | – | – | – | – | IC50 [2, 7]: 5.61 µM; IC50 [2, 8]: 5.62 µM
CCOC(=O)COc1cccc2c1[n+]([O-])c1cc(C)c(C)cc1[n+]2[O-] [Example 6b, 1-(2-ethoxy-2-oxoethoxy)-7,8-dimethylphenazine 5,10-dioxide] | 6.3 ± 0.25 µM | 8.3 ± 0.78 µM | > 100 µM | 140 ± 2 µM | > 100 µM | –
CN1CCN(C(=O)Oc2cccc3c2[n+]([O-])c2cc(Br)c(Br)cc2[n+]3[O-])CC1 [Example 8g, 7,8-dibromo-1-((4-methylpiperazine-1-carbonyl)oxy)phenazine 5,10-dioxide] | – | – | – | – | – | EC50 ([3]; read-out: EC50 (μM) NRK 2% O2, 2% O2, 24 hours of incubation): 62 ± 1.3 µM; EC50 ([3]; read-out: EC50 (μM) NRK 19% O2, 19% O2, 24 hours of incubation): 49 ± 1.8 µM; EC50 [1, 12]: 0.7 ± 0.04 µM; EC50 [1, 13]: 0.89 ± 0.03 µM; EC50 ([4]; Rattus norvegicus, H9c2, 24 h): 64 ± 9.2 µM
O=C(Oc1cccc2c1[n+]([O-])c1cccc(O)c1[n+]2[O-])N1CCCC1 [Example 8j, 1-hydroxy-6-((pyrrolidine-1-carbonyl)oxy)phenazine 5,10-dioxide] | – | – | – | – | – | EC50 [3, 14]: 15 ± 1 µM; EC50 [3, 15]: 9.6 ± 0.38 µM; EC50 [1, 16]: 0.79 ± 0.09 µM; EC50 [1, 17]: 0.86 ± 0.05 µM; EC50 [4, 18]: 12 ± 0.7 µM
Cc1c(C)[n+](O)c2c(O)cccc2[n+]1[O-] [Example 12, 5-hydroxy-2,3-dimethylquinoxaline 1,4-dioxide] | > 200 µM | > 200 µM | – | – | – | –
Cc1c(C)[n+]([O-])c2c(OC(=O)N3CCN(C)CC3)cccc2[n+]1[O-] [Example 13, 2,3-dimethyl-5-((4-methylpiperazine-1-carbonyl)oxy)quinoxaline 1,4-dioxide] | – | – | – | – | – | EC50 [1, 16]: > 200 µM; EC50 [1, 17]: > 200 µM
O=C(Oc1cccc2c1[n+]([O-])c1cccc(OC(=O)N3CCCC3)c1[n+]2[O-])N1CCCC1 [Example 16a, 1,6-bis((pyrrolidine-1-carbonyl)oxy)phenazine 5,10-dioxide] | – | – | – | – | – | IC50 ([2]; MOLM-13, 24 h, read-out: Molm 13 IC50 20% O2): 0.95 µM
[O-][n+]1c2ccccc2[n+]([O-])c2c(O)cccc21 [Example 17, 1-hydroxyphenazine 5,10-dioxide] | 12 ± 0.04 µM | 11 ± 1.8 µM | > 100 µM | 79 ± 4.2 µM | > 100 µM | –
CC(C)(C)OC(=O)COc1cccc2c1[n+]([O-])c1ccccc1[n+]2O [Example 19, 1-(2-(tert-butoxy)-2-oxoethoxy)phenazine 5,10-dioxide] | 1.9 ± 0.11 µM | 2.2 ± 0.09 µM | 25 ± 1.9 µM | 26 ± 0.7 µM | 20 ± 2.1 µM | –
CCN(CC)C(=O)COc1cccc2c1[n+]([O-])c1ccccc1[n+]2[O-] [Example 21, 1-(2-(diethylamino)-2-oxoethoxy)phenazine 5,10-dioxide] | 1.4 ± 0.15 µM | 1.2 ± 0.08 µM | 16 ± 1 µM | 13 ± 0.01 µM | 23 ± 0.1 µM | –
O=C(Oc1cccc2c1[n+]([O-])c1ccccc1[n+]2[O-])N1CCCC1 [Example 24, 1-((pyrrolidine-1-carbonyl)oxy)phenazine 5,10-dioxide] | – | – | – | – | – | EC50 [3, 14]: 21 ± 2.4 µM; EC50 [3, 15]: 18 ± 0.6 µM; EC50 [1, 16]: 1.2 ± 0.15 µM; EC50 [1, 17]: 1.5 ± 0.18 µM; EC50 [4, 18]: 13 ± 0.5 µM
CC(C)(C)OC(=O)COc1cccc2c1[n+]([O-])c1cccc(OCC(=O)OC(C)(C)C)c1[n+]2[O-] [Example 36, 1,6-bis(2-(tert-butoxy)-2-oxoethoxy)phenazine 5,10-dioxide] | 3.3 ± 0.22 µM | 4.2 ± 0.2 µM | 27 ± 1.8 µM | 27 ± 1.2 µM | – | –
O=C(O)COc1cccc2c1[n+]([O-])c1cccc(OCC(=O)O)c1[n+]2[O-] [Example 37, 1,6-bis(carboxymethoxy)phenazine 5,10-dioxide] | 39 ± 9 µM | 18 ± 3 µM | > 200 µM | > 200 µM | – | –
Cc1cc2c(cc1C)[n+]([O-])c1c(O)cccc1[n+]2[O-] [Example 48, 1-hydroxy-7,8-dimethylphenazine 5,10-dioxide] | 2.3 ± 0.1 µM | 2.8 ± 0.25 µM | > 50 µM | > 50 µM | > 50 µM | –
[O-][n+]1c2ccccc2[n+]([O-])c2cc(O)ccc21 [Example 60, 2-hydroxyphenazine 5,10-dioxide] | 45 ± 3.5 µM | 128 ± 3 µM | – | – | > 200 µM | –
CCOC(=O)COc1ccc2c(c1)[n+](O)c1ccccc1[n+]2O [Example 62, 2-(2-ethoxy-2-oxoethoxy)phenazine 5,10-dioxide] | 15 ± 0.7 µM | 32 ± 5 µM | – | – | 45 ± 4.8 µM | –
CN1CCN(C(=O)Oc2ccc3c(c2)[n+](O)c2ccccc2[n+]3O)CC1 [Example 63, 2-((4-methylpiperazine-1-carbonyl)oxy)phenazine 5,10-dioxide] | – | – | – | – | – | EC50 [1, 12]: 3.5 ± 0.19 µM; EC50 [1, 13]: 14 ± 0.4 µM; EC50 ([4]; Rattus norvegicus, H9c2, 24 h): 53 ± 0.3 µM
Cc1cc2c(cc1C)[n+]([O-])c1cc(O)ccc1[n+]2[O-] [Example 64, 7-hydroxy-2,3-dimethylphenazine 5,10-dioxide] | 50 ± 3.8 µM | 117 ± 1 µM | – | – | > 200 µM | –
Cc1cc2c(cc1C)[n+](O)c1cc(OC(=O)N3CCN(C)CC3)ccc1[n+]2[O-] [Example 65, 2,3-dimethyl-7-((4-methylpiperazine-1-carbonyl)oxy)phenazine 5,10-dioxide] | – | – | – | – | – | EC50 [1, 12]: 2.5 ± 0.24 µM; EC50 [1, 13]: 17 µM; EC50 ([4]; Rattus norvegicus, H9c2, 24 h): 20 ± 2.4 µM
Nc1ccc2c(c1)[n+](O)c1ccccc1[n+]2[O-] [Example 67, 2-aminophenazine 5,10-dioxide] | 7.6 ± 0.89 µM | 31 ± 1.4 µM | – | – | 80 ± 8.9 µM | –
Cc1c(C)[n+]([O-])c2c(OC(=O)N3CCOCC3)cccc2[n+]1[O-] [Example 69, 2,3-dimethyl-5-((morpholine-4-carbonyl)oxy)quinoxaline 1,4-dioxide] | – | – | – | – | – | EC50 [1, 16]: > 200 µM; EC50 [1, 17]: > 200 µM
